According to EP1614683B1, “Indazole compounds and pharmaceutical compositions for inhibiting protein kinases, and methods for their use” (priority 1999, dated 2001):
Values joined by “and” are separate entries in the source; they are usually repeats but may differ in a detail not shown here. Identical values can stand only once. Like-named read-outs stand apart in the source and are kept apart here.

Columns and labels:
[1] = target: T1, unphosphorylated VEGF-R2Δ50 (Homo sapiens, UniProt P35968, DEL940-989/E990V); conditions: Table 1; for FLVK ** (% inhibition): compound concentration 50 nM; for Ki: read-out: FLVK ** (Ki)
T1 sequence (P35968 with tags, fused parts or gaps DEL940-989/E990V limits assumed): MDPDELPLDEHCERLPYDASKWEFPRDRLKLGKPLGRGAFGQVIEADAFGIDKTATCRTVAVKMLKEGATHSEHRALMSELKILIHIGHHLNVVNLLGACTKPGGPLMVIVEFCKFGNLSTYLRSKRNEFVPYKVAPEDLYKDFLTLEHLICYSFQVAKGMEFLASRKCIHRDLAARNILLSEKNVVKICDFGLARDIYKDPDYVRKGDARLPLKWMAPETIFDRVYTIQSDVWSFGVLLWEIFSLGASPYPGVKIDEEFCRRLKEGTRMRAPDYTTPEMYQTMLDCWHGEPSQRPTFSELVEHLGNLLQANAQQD

in vitro = in vitro ADME, human; conditions: human, microsomes, 2 h, 5 µM
How it was run: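 HLM diluted to 5 mg/mL in 100 mM KPO4, preincubated 10 min at 37 °C with NADPH-regenerating system. Compound (5 µM final) incubated at 37 °C in triplicate, sampled at 0 and 2 h into ice-cold acetonitrile, then LC-MS analysis.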

CDK2/Cyclin A complex = CDK2/Cyclin A complex (Homo sapiens, UniProt P24941); test: CDK2/Cyclin A assay ([32P]ATP incorporation into Rb fragment); format: biochemical; conditions: Table 1; read-out: CDK2 * (Ki, cell in µM)
CDK4/Cyclin D3 complex [2] = target: T2, CDK4/Cyclin D3 complex (Homo sapiens, UniProt P11802)
T2 sequence (P11802 whole entry): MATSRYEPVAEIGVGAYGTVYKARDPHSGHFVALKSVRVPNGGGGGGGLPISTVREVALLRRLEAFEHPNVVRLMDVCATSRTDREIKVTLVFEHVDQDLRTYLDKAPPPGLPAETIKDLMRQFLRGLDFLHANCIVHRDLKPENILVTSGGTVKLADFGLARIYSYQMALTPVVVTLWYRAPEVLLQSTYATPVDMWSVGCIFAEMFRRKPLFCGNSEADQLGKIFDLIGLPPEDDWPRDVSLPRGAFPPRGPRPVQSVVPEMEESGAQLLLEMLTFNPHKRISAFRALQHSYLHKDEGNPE
T2 sequence (P30281 whole entry partner): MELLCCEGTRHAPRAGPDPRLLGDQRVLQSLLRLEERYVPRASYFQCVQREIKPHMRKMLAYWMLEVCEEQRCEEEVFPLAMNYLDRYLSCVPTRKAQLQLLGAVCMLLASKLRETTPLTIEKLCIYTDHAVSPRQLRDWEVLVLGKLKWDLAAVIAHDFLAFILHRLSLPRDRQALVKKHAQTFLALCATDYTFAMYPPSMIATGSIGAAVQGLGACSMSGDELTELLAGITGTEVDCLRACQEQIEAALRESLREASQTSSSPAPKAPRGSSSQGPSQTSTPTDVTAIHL

[3] = tested on: human umbilical vein endothelial cells (HUVEC); test: HUVEC proliferation assay (VEGF-stimulated, MTT); format: cell-based; conditions: read-out: HUVEC IC50
LCK tyrosine kinase = LCK tyrosine kinase (Homo sapiens, UniProt P06239, C224D/P223M); test: LCK spectrophotometric assay; format: biochemical
LCK tyrosine kinase, sequence (P06239 223-509 P223M/C224D): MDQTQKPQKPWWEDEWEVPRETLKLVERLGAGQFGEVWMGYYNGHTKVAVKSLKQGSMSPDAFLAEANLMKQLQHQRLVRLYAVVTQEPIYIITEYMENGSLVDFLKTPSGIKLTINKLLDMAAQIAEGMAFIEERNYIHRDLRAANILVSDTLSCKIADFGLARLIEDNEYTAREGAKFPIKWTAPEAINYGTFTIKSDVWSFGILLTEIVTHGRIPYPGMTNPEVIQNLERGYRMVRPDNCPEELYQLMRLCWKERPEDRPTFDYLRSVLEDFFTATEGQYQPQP
Description: The spectrophotometric assay was carried out as described above for VEGF-R2, except for the following changes in concentration: LCK = 60 nM, MgCl2 = 0 mM, poly(E4Y1) = 20 mM.

[4] = target: T3, phosphorylated Tie-2 (aa 775-1122) (Homo sapiens, UniProt Q02763); test: TIE-2 spectrophotometric assay; format: biochemical; conditions: read-out: % Inhibition Tie2-P, compound tested at 10 µM
T3 construct: 4 to 12 nM phosphorylated Tie-2 (aa 775-1122); made in house; host or cells: insect cells
T3 sequence (Q02763 775-1122): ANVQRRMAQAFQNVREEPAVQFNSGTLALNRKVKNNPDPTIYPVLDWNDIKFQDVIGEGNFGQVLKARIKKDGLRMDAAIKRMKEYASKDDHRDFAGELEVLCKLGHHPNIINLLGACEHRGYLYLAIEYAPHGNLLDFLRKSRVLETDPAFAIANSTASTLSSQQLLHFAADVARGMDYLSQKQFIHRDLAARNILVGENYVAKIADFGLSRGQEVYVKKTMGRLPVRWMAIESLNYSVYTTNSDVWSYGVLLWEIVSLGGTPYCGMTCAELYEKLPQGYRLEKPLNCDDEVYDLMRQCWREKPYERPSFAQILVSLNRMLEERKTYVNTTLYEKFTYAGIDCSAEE
How it was run: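 Human phosphorylated Tie-2 kinase activity was measured spectrophotometrically by coupling ADP formation, from phosphoryl transfer to poly(Glu4 Tyr), to NADH oxidation via pyruvate kinase and lactate dehydrogenase. Absorbance loss at 340 nm was read on a Beckman DU650. Reactions held 1 mM phosphoenolpyruvate, 0.24 mM NADH, 40 mM MgCl2, 5 mM DTT, 0.5 mM ATP, and 15 units/mL each of PK and LDH in 100 mM HEPES, pH 7.5.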

human FAK (FAKcd409) = target: T4, human FAK (FAKcd409) (Homo sapiens, UniProt Q05397, P410T); test: FAK fluorescence polarization assay; format: biochemical; conditions: read-out: % Inhibition FAK, compound tested at 10 µM
T4 construct: comprises residues methionine 409 to glutamate 689; made in house; host or cells: baculovirus vector expression system (insect cells)
T4 sequence (Q05397 409-689 P410T): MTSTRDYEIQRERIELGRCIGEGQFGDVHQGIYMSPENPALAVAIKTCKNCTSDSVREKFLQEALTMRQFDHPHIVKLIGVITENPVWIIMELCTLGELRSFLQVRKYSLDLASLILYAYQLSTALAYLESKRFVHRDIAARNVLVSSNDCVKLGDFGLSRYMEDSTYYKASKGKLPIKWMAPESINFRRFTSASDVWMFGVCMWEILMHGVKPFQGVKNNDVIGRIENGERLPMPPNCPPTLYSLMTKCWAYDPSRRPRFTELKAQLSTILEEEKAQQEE
Description: FAK Construct for Assay. The catalytic domain of human FAK (FAKcd409) was expressed using the baculovirus vector expression system. […] The protein was purified using classical chromatography techniques.
FAK HTS utilized the fluorescence polarization assay provided by LJL Biosystems. The kinase reaction contained: 100mM Hepes pH 7.5, 10mM MgCl2, 1mM DTT, 1mM ATP, and 1mg/ml poly Glu-Tyr (4: 1). The reaction is initiated by the addition of 5nM FAKcd409. The reaction is terminated by the addition of EDTA followed by addition of fluor-labelled peptide and anti-phosphotyrosine antibody, both provided by LJL Biosystems. Inhibition results are read on a Analyst (LJL) detector.

HCT-116 = HCT-116 cell assay (Table 2); format: cell-based; conditions: Homo sapiens
human FGF-R1 = human FGF-R1 (Homo sapiens, UniProt P11362, C488A/C584S/L457V); test: FGF-R spectrophotometric assay; format: biochemical
human FGF-R1, sequence (P11362 456-766 L457V/C488A/C584S): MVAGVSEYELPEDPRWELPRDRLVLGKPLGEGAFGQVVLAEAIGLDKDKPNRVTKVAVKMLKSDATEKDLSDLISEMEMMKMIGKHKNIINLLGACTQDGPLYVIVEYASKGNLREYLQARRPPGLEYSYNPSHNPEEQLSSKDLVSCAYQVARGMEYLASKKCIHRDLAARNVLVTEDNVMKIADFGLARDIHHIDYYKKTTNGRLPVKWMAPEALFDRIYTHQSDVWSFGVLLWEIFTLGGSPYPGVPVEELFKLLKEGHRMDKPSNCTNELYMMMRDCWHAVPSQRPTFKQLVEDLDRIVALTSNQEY
Description: The spectrophotometric assay was carried out as described above for VEGF-R2, except for the following changes in concentration: FGF-R = 50 nM, ATP = 2 mM, and poly(E4Y1) =15 mM.

[5] = mouse, in vivo, pH 2.3
human CHK1 (FL-CHK1) = target: T5, human CHK1 (FL-CHK1) (Homo sapiens, UniProt O14757); test: CHK1 coupled spectrophotometric assay; format: biochemical
T5 construct: C-terminally His-tagged full-length human CHK1 (FL-CHK1) was expressed using the baculovirus/insect cell system; made in house; host or cells: baculovirus/insect cell system
T5 sequence (O14757 1-476): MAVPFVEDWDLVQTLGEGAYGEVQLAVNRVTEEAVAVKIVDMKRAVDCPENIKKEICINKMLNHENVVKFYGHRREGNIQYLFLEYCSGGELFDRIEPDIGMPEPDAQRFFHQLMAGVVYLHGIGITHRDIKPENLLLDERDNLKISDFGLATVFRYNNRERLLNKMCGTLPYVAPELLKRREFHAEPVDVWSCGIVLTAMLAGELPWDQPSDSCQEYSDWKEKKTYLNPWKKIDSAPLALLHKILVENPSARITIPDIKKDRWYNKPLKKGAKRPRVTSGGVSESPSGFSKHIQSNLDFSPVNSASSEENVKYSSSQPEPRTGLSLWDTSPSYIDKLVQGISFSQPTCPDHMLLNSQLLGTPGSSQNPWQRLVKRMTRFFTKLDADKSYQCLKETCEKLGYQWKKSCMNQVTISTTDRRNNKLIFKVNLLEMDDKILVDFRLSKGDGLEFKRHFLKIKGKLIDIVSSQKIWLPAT
How it was run: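 His-tagged full-length human CHK1 from baculovirus/insect cells, 10 nM, phosphorylating Syntide-2. ADP formation coupled via PK/LDH with PEP to NADH oxidation, followed as absorbance decrease at 340 nm. Ki from initial rates at varying compound concentrations.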

[6] = target: T1, unphosphorylated VEGF-R2Δ50; test: biochemical; conditions: read-out: FLVK* (% inhibition)
CDK4/Cyclin D3 complex [7] = target: T2, CDK4/Cyclin D3 complex; test: biochemical; conditions: read-out: CDK4* (% inhibition @ 5 µM)
[8] = target: T6, truncated catalytic subunit (gamma subunit) of phosphorylase kinase (amino acids 1-298) (Oryctolagus cuniculus, UniProt P00518); test: Phosphorylase kinase assay; format: biochemical; conditions: 10 µM of compound; phosphoryl transfer from ATP to phosphorylase b
T6 construct: (gamma subunit) of phosphorylase kinase (amino acids 1-298); made in house
T6 sequence (P00518 2-299 limits assumed): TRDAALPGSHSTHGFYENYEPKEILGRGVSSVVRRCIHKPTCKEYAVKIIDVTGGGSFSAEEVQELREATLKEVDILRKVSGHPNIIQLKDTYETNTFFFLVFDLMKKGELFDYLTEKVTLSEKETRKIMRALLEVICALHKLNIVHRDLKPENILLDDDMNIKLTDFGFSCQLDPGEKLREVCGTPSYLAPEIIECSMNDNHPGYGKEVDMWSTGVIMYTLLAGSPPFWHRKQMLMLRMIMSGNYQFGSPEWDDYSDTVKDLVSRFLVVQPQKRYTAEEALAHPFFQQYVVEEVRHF
Description: In the assay, the purified catalytic subunit is used to phosphorylate phosphorylase b using radiolabled ATP. Briefly, 1.5 mg/ml of phosphorylase b is incubated with 10 nM phosphorylase kinase in 10 mM MgCl2, 50 mM Hepes pH 7.4, at 37 °C. […] The reaction was terminated and proteins were precipitated by the addition of TCA to 10% final concentration. […] The filter plate was then extensively washed with 20% TCA, and dried. Scintilation fluid was then added to the plate and incorporated radiolabel was counted on a Wallac microbeta counter.

[9] = Isomer stability under assay conditions; format: physicochemical; conditions: Z-isomer, isolated pure
Description: Reference Example 33(h) was prepared in the same reaction as Reference Example 33(d). […] Found: C (66.36), H (4.08), N (11.49), S (6.55).

[10] = read-out: CDK4 * (Ki, cell in µM), Table 1
[11] = Table 1, compound concentration 1 µM, read-out: Lck-P* (% inhibition)
[12] = Table 1, compound concentration 1 µM

For “6-[2-((4-Aminobenzyl)methylcarbamoyl)phenylsulfanyl]-3-E-[2-(pyridin-2-yl)ethenyl]-1H-indazole [Reference Example 35(I)]”, the “FLVK ** (% inhibition)” value ([1]; listed as 35(l), 0.05 µM) was 100% and 99% and the “% remain (HLM, 2 h)” value (in vitro) was 5%.
Compound `C(=C\c1n[nH]c2cc(Oc3ccccc3)ccc12)/c1ccccc1` [8(a), 3-(E-styryl)-6-phenoxy-1H-indazole] has a Ki (CDK2/Cyclin A complex) of over 100 µM, a Ki (CDK4/Cyclin D3 complex [2]; [10]) of over 100 µM and an IC50 ([3]; Homo sapiens, HUVEC) of over 1000 nM. For the same compound, the inhibition at 1 µM (LCK tyrosine kinase; [11]) was 43%, the inhibition at 10 µM [4] was 55% and the inhibition at 10 µM (human FAK (FAKcd409)) was 3%.
With `C(=C\c1n[nH]c2cc(Sc3ccccc3)ccc12)/c1ccccc1` [8(c), 3-(E-styryl)-6-phenylsulfanyl-1H-indazole] the Ki (CDK2/Cyclin A complex) was over 100 µM, the Ki (CDK4/Cyclin D3 complex [2]; [10]) was over 100 µM and the IC50 ([3]; Homo sapiens, HUVEC, Table 1) was 280 nM. For the same compound, the inhibition at 1 µM (LCK tyrosine kinase; [11]) was 34%, the inhibition at 10 µM [4] was 31% and the inhibition at 10 µM (human FAK (FAKcd409)) was 15%.
Compound `Oc1ccc(-c2ccc3c(-c4nc5ccccc5[nH]4)n[nH]c3c2)c(Oc2ccccc2)c1` [24(g), 3-1H-Benzoimidazol-2-yl-6-(2-phenoxy-4-hydroxyphenyl)-1H-indazole] has an IC50 (HCT-116) of over 5000 nM.
For `O=C(c1cccc(NC(=O)c2ccccn2)c1)c1ccc2c(/C=C/c3ccccn3)n[nH]c2c1` [41 (aa)], the “FGF-P* (% inhibition)” value (human FGF-R1; [12]) was 37%, the Ki [1] was 0.11 nM and the IC50 ([3]; Table 1) was 1 nM. For the same compound, the “Lck-P* (% inhibition)” value (LCK tyrosine kinase; [12]) was 49%, the “% remain (HLM, 2 h)” value (in vitro) was 100% and the AUCleast ([5]; ip, 25 mg/kg) was 6659 ng·h/mL. For the same compound, the T1/2 ([5]; ip, 25 mg/kg) was 2.1 h, the “Cmin (7 hr conc.)” value ([5]; po, 50 mg/kg, 7 h) was 5 ng/mL and the AUCleast ([5]; po, 50 mg/kg) was 289 ng·h/mL. For the same compound, the T1/2 ([5]; po, 50 mg/kg) was 0.9 h.
For `CCn1nc(C)cc1C(=O)Nc1cc(C(=O)c2ccc3c(/C=C/c4ccccn4)n[nH]c3c2)c(C)cc1C` [41(11)], the Ki (human FGF-R1; Table 1, read-out: FGF-P* (Ki)) was 11 nM, the “FLVK ** (% inhibition)” value [1] was 57% and the “Lck-P* (% inhibition)” value (LCK tyrosine kinase; [12]) was 18%. The “% remain (HLM, 2 h)” value (in vitro) was 85%.
`O=C(Nc1cccc(C(=O)c2ccc3c(/C=N/n4cnnc4)n[nH]c3c2)c1)c1ccccc1` [Example 42(e), 6-(3-benzamidobenzoyl)-3-E-[N-(4H-1,2,4-triazol-4-yl)iminomethyl]-1H-indazole] gave a Ki [1] of 1.1 nM.
`CCOCc1cc(O)c(OC)cc1-c1ccc2c(-c3nc4ccccc4[nH]3)n[nH]c2c1` [Reference Example 24(l), 3-1H-Benzoimidazol-2-yl-6-(2-(ethoxymethyl)-5-methoxy-4-hydroxy-phenyl)-1H-indazole] showed a Ki (CDK4/Cyclin D3 complex [2]; read-out: CDK4* (Ki), Table 2) of 0.013 µM, a Ki (CDK4/Cyclin D3 complex [2]; read-out: CDK4* (Ki), Table 2, listed as 24(1)) of 0.071 µM and an inhibition at 20 µM (human CHK1 (FL-CHK1); read-out: CHK1* (% inhibition @ 20 µM)) of 62%.
`CNC(=O)c1ccc2[nH]c(-c3n[nH]c4cc(-c5ccc(O)cc5OC)ccc34)nc2c1` [Reference Example 25(g), 3-(5-methylcarbamoyl-1H-benzoimidazol-2-yl)-6-(2-methoxy-4-hydroxyphenyl)-1H-indazole] gave an inhibition at 1 µM (human FGF-R1; read-out: FGF* (% inhibition)) of 82%, an inhibition at 1 µM (LCK tyrosine kinase; read-out: Lck* (% inhibition)) of 76% and an IC50 (HCT-116) of 2000 nM. For the same compound, the inhibition at 1 µM (human CHK1 (FL-CHK1); read-out: CHK1* (% inhibition)) was 21%.
`COc1cc(O)ccc1-c1ccc2c(-c3nc4ccc(S(N)(=O)=O)cc4[nH]3)n[nH]c2c1` [Reference Example 25(i), 3-(5-Aminosulfonyl-1H-benzoimidaxol-2-yl)-6-(2-methoxy-4-hydroxy-phenyl)-1H-indazole] gave an IC50 (HCT-116) of over 5000 nM.
Work on `C(=C\c1n[nH]c2cc(-c3ccccc3)ccc12)/c1ccccc1` [Reference Example 27(a), 6-phenyl-3-E-styryl-1H-indazole] yielded an inhibition at 1 µM [6] of 71%, an inhibition at 5 µM (CDK4/Cyclin D3 complex [7]) of 28% and an inhibition at 10 µM [8] of 37%.
For `O=C(Nc1cccc(Cl)c1)c1ccccc1Sc1ccc2c(/C=C\c3ccccn3)n[nH]c2c1` [Reference Example 33(h), 6-[2-(3-chlorophenylcarbamoyl)phenysulfanyl]-3-Z-[2-(pyridin-2-yl)ethenyl]-1H-indazole], the “isomerization under assay conditions” value [9] was “found to isomerize to Reference Example 33(d) under assay conditions”.
